In ChEMBL document CHEMBL3045842, “Antioxidant and -glucosidase inhibitory compounds from Pimpinella candolleana Wight et Arn” (Med Chem Res, 2012):
Values after ≈ are worked out from the molar mass of the structure shown.

Key:
[1] = target: Lysosomal alpha-glucosidase (Homo sapiens) (UniProt P10253); test: Inhibition of alpha-glucosidase (unknown origin) using para-nitrophenyl-alpha-D-glucopyranoside as substrate incubated at 50 to 300 ug/ml for 15 min prior to substrate addition measured after 15 min by spectrophotometric analysis
[2] = system: Radical scavenging activity; test: Antioxidant activity assessed as as DPPH radical scavenging activity after 30 min by spectrophotometry; assay type: functional
[3] = Antioxidant activity assessed as trolox equivalents of ferric reducing activity after 30 min by spectrophotometry; assay type: functional
[4] = Antioxidant activity assessed as ABTS radical scavenging activity after 10 min by spectrophotometry; assay type: functional

Compound	inhibition [1] [%]	IC50 [2] [µg/mL]	Activity [3] [µmol/g]	IC50 [4] [µg/mL]
O=c1cc(-c2ccc(O)c(O)c2)oc2cc(O)cc(O)c12 [LUTEOLIN]	99.9	0.99 (≈ 3.46 µM)	–	–
Cc1cc(C(C)(C)C)c(O)c(C(C)(C)C)c1 [BUTYLATED HYDROXYTOLUENE]	–	18.71 (≈ 84.9 µM)	1580	6.64 (≈ 30.1 µM)
C[C@H]1[C@H](C)CC[C@]2(C(=O)O)CC[C@]3(C)C(=CC[C@@H]4[C@@]5(C)CC[C@H](O)C(C)(C)[C@@H]5CC[C@]43C)[C@H]12	97.6	–	–	–
CCCOC(=O)c1cc(O)c(O)c(O)c1 [PROPYL GALLATE]	–	3.96 (≈ 18.7 µM)	–	–
CC[C@H](/C=C/[C@@H](C)[C@H]1CC[C@H]2[C@@H]3CC=C4CC(OC(C)=O)CC[C@]4(C)[C@H]3CC[C@]12C)C(C)C (stereo not given in full)	99.1	–	–	–
O=c1cc(-c2ccc(O)cc2)oc2cc(O)c([C@@H]3O[C@H](CO)[C@@H](O)[C@H](O)[C@H]3O)c(O)c12	76.8	–	–	–
C[C@H]1O[C@H](O[C@H]2[C@H](O)[C@@H](O)[C@@H](O[C@H]3[C@H](O)[C@@H](O)C(O)O[C@@H]3CO)O[C@@H]2CO)[C@H](O)[C@@H](O)[C@@H]1N[C@H]1C=C(CO)[C@@H](O)[C@H](O)[C@H]1O (stereo not given in full)	55.6	–	–	–
